In patent US10829487B2, “Benzylamino substituted pyridopyrimidinones and derivatives as SOS1 inhibitors” (Boehringer Ingelheim International GmbH, priority 2017, dated 2020):

Assays:
[1] = Metabolic (microsomal) stability assay, rat liver microsomes (RLM); type: in vitro ADME; conditions: 1 μM test compound, 37° C.
Method: (§1) Metabolic (Microsomal) Stability Assay: The metabolic degradation of the test compound is assayed at 37° C. with pooled liver microsomes (mouse (MLM), rat (RLM) or human (HLM)). The final incubation volume of 74 μL per time point contains TRIS buffer (pH 7.5; 0.1 M), magnesium chloride (6.5 mM), microsomal protein (0.5 mg/mL for mouse/rat, 1 mg/mL for human specimens) and the test compound at a final concentration of 1 μM. Following a short preincubation period at 37° C., the reactions are initiated by addition of 8 μL beta-nicotinamide adenine dinucleotide phosphate, reduced form (NADPH, 10 mM) and terminated by transfering an aliquot into solvent after different time points. Additionally, the NADPH-independent degradation is monitored in incubations without NADPH, terminated at the last time point by addition of acetonitrile. The quenched incubations are pelleted by centrifugation (1811 g, 5 min). An aliquot of the supernatant is assayed by LC-MS/MS for the amount of parent compound. In vitro intrinsic clearance (CLint, in vitro) is calculated from the time course of the disappearance of the test drug during the microsomal incubation. Each plot is fitted to the first-order elimination rate constant as C(t)=C0*exp(−ke*t), where C(t) and C0 are the concentration of unchanged test drug at incubation time t and that at preincubation and ke is the disappearance rate constant of the unchanged drug. Subsequently, CLint, in vitro (μL min^−1·amount protein) values are converted to CLint, in vitro (mL min^−1·kg^−1) for the whole body. CLint, in vitro data are scaled up using physiological parameters. For better across species comparison the predicted clearance is expressed as percent of the liver blood flow [% QH] in the individual species. In general, high stability (corresponding to low % QH) of the compounds across species is desired.

[2] = target: protein-protein interaction between SOS1 and KRAS G12D (Homo sapiens (Human), UniProt Q07889); assay: KRAS::SOS1 AlphaScreen Binding Assay
protein-protein interaction between SOS1 and KRAS G12D, sequence (Q07889 564-1049, stated change not applied): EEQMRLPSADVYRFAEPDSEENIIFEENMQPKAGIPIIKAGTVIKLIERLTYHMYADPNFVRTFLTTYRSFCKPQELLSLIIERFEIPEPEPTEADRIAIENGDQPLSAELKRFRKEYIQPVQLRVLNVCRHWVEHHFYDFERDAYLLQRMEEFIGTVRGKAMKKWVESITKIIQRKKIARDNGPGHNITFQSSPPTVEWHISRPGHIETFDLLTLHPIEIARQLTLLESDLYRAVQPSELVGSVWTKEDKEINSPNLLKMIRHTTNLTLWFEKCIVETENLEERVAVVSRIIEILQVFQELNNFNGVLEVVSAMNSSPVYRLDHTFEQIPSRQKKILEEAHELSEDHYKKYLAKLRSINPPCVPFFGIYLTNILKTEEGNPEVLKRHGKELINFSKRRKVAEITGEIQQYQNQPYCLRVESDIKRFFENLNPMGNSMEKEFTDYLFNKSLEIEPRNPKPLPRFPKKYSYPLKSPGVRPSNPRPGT
Source text: KRAS::SOS1 AlphaScreen Binding Assay
Low IC50 values are indicative of high potency of the SOS1 inhibitor compound in this assay setting:
Reagents: • GST-tagged SOS1 (564_1049_GST_TEV_ECO) produced in-house • GST-TEV-SOS1 (564-1049) is purchased from Viva Biotech Ltd. • 6×His-Tev-K-RasG12D(1-169)Avi is purchased from Xtal BioStructures, Inc. (Lot # X129-110) • GDP (Sigma Cat No G7127) • AlphaLISA Glutathione Acceptor Beads (PerkinElmer, Cat No AL109) • AlphaScreen Streptavidin Donor Beads (PerkinElmer Cat No 6760002) • Assay plates: Proxiplate-384 PLUS, white (PerkinElmer, Cat No 6008289)
10 nM (final assay concentration) KRAS G12D, 10 μM (final assay concentration) GDP and 5 nM (final assay concentration) GST-SOS1 are mixed in assay buffer prior to use and kept at room temperature.
AlphaLISA Glutathione Acceptor Beads and AlphaScreen Streptavidin Donor Beads are mixed in assay buffer at a concentration of 10 μg/mL (final assay concentration) each prior to use and kept at room temperature.
Compounds are diluted to a final start concentration of 100 μM and are tested in duplicate. Assay-ready plates (ARPs) are generated using an Access Labcyte Workstation with a Labcyte Echo 550 or 555 accoustic dispenser. For compound a start concentration of 100 μM, 150 nL of compound solution is transferred per well in 11 concentrations in duplicate with serial 1:5 dilutions.
The assay is run using a fully automated robotic system in a darkened room below 100 Lux. 10 μL of KRAS::SOS1 GDP mix is added into columns 1-24 to the 150 nL of compound solution (final dilution in the assay 1:100, final DMSO concentration 1%).
After a 30 minute incubation time 5 μL of bead mix is added into columns 1-23. Plates are kept at room temperature in a darkened incubator. After a further 60 minute incubation, the signal is measured using a PerkinElmer Envision HTS Multilabel Reader using the AlphaScreen specifications from PerkinElmer. Each plate contains the following controls: • diluted DMSO+KRAS::SOS1 GDP mix+bead mix • diluted DMSO+KRAS::SOS1 GDP mix
IC50 values are calculated and analyzed using a 4 parametric logistic model.

[3] = Metabolic (microsomal) stability assay, human liver microsomes (HLM); type: in vitro ADME; conditions: 1 μM test compound, 37° C.
Method: as §1

[4] = Metabolic (microsomal) stability assay, mouse liver microsomes (MLM); type: in vitro ADME; conditions: 1 μM test compound, 37° C.
Method: as §1

[5] = tested on: ERK phosphorylation in DLD-1 cells (KRAS G13D); assay: ERK Phosphorylation Assay (AlphaLISA SureFire Ultra p-ERK1/2); type: cell-based; conditions: Homo sapiens, 1 h compound, EGF 50 ng/mL 10 min, read-out: pERK
Method: ERK Phosphorylation Assay
Low IC50 values are indicative of high potency of the SOS1 inhibitor compounds in this assay setting.
ERK phosphorylation assays are performed using the following human cell lines: DLD-1 (ATCC CCL-221): human colon cancer with a KRAS G13D mutation;
DLD-1 cells (ATCC CCL-221) are seeded at 50,000 cells per well in/60 μL of RPMI with 10% FBS, non-essential amino acids, pyruvate and glutamax in Greiner TC 384 plates. The cells are incubated for 1 h at room temperature and then incubated overnight in an incubator at 37° C. and 5% CO2 in a humidified atmosphere. 60 nL compound solution (10 mM DMSO stock solution) is then added using a Labcyte Echo 550 device. After a 1 h incubation in the aforementioned incubator, 3 μL Epidermal Growth Factor (EGF, final concentration 50 ng/mL) is added. 10 minutes later the medium is removed, and the cells lysed by addition of 20 μL of 1.6-fold lysis buffer from the AlphaLISA SureFire Ultra pERK1/2 (Thr202/Tyr204) Assay Kit with added protease inhibitors, 100 nM trametinib+100 nM staurosporine. After 20 minutes of incubation at room temperature with shaking, 6 μL of each lysate sample is transferred to a 384-well Proxiplate and analyzed for pERK (Thr202/Tyr204) with the AlphaLISA SureFire Ultra pERK1/2 (Thr202/Tyr204) Assay Kit. 3 μL Acceptor Mix and 3 μL Donor Mix are added under subdued light and incubated for 2 h at room temperature in the dark, before the signal is measured on a Perkin Elmer Envision plate reader using 384 AlphaScreen settings for Proxiplates. Data are fitted by iterative calculation with variable hill slope. The sigmoidal curve slope is fitted using a default fitting curve to ascertain IC50 values.

[6] = Table 20, KRAS::SOS1 AlphaScreen (SOS1 / KRAS G12D)
[7] = KRAS G12D::SOS1 AlphaScreen, measured without EDTA unless marked with an asterisk

Compound	RLM [% QH] [1]	IC50 [2, 6]	HLM [% QH] [3]	MLM [% QH] [4]	IC50 [2, 7]	IC50 [5]
Cc1nc(N[C@H](C)c2cccc(C(F)(F)F)c2C)c2cn([C@H]3C[C@](O)(C(F)(F)F)C3)c(=O)cc2n1 [I-47]	29 % QH	33 nM	24 % QH	<24 % QH	–	–
Cc1nc(N[C@H](C)c2cccc(C(F)F)c2F)c2cn(C3(C)CC(F)(F)C3)c(=O)cc2n1 [I-14]	56 % QH	21 nM	27 % QH	26 % QH	–	–
Cc1nc(N[C@H](C)c2cccc(C(F)F)c2F)c2cn([C@H]3C[C@H](F)C3)c(=O)c(F)c2n1 [I-84]	29 % QH	8 nM	<24 % QH	<24 % QH	–	–
Cc1nc(N[C@H](C)c2cccc(C(C)(F)F)c2)c2cn(C34CC(F)(C3)C4)c(=O)cc2n1 [I-51]	49 % QH	31 nM	<24 % QH	<24 % QH	–	–
Cc1nc(N[C@H](C)c2cccc(C(F)F)c2F)c2cn(C3(C(F)(F)F)CC3)c(=O)cc2n1 [I-4]	<23 % QH	8 nM	<24 % QH	46 % QH	–	–
C[C@@H](Nc1ncnc2c(F)c(=O)n(C3(C(F)F)CC3)cc12)c1cccc(C(F)F)c1F [I-96]	<23 % QH	7 nM	<24 % QH	30 % QH	–	–
Cc1nc(N[C@H](C)c2cccc(C(F)(F)F)c2)c2cn(C(C)C)c(=O)cc2n1 [I-27]	<23 % QH	38 nM	<24 % QH	88 % QH	–	–
Cc1c(=O)n(-c2cnn(C)c2)cc2c(N[C@H](C)c3cccc(C(F)F)c3F)ncnc12 [I-172]	<23 % QH	–	<24 % QH	53 % QH	14 nM	–
Cc1nc(N[C@H](C)c2cccc(C(C)(F)F)c2F)c2cn(C3(C)CC3)c(=O)c(F)c2n1 [I-86]	<23 % QH	6 nM	<24 % QH	33 % QH	–	–
C[C@@H](Nc1ncnc2cc(=O)n([C@H]3C[C@H](F)C3)cc12)c1cccc(C(F)F)c1F [I-69]	40 % QH	6 nM	<24 % QH	<24 % QH	–	–
C[C@@H](Nc1ncnc2cc(=O)n(C34CC(F)(C3)C4)cc12)c1cccc(C(F)F)c1F [I-71]	<23 % QH	7 nM	<24 % QH	<24 % QH	–	–
Cc1nc(N[C@H](C)c2cccc(C(F)F)c2F)c2cn(C3(C(F)F)CC3)c(=O)cc2n1 [I-3]	<23 % QH	–	<24 % QH	51 % QH	–	–
Cc1nc(N[C@H](C)c2cccc(C(F)F)c2F)c2cn([C@]3(C(F)(F)F)CCOC3)c(=O)c(F)c2n1 [I-85]	<23 % QH	9 nM	24 % QH	55 % QH	–	–
Cc1nc(N[C@H](C)c2cccc(C(F)F)c2F)c2cn([C@H]3C[C@@H]3C(F)F)c(=O)c(F)c2n1 [I-83]	42 % QH	15 nM	<24 % QH	<24 % QH	–	–
Cc1c(=O)n([C@H]2C[C@@H]2C(F)F)cc2c(N[C@H](C)c3cccc(C(F)F)c3F)ncnc12 [I-165]	<23 % QH	–	<24 % QH	54 % QH	17 nM	–
Cc1nc(N[C@H](C)c2cccc(C(F)F)c2F)c2cn([C@]3(C(F)(F)F)CCOC3)c(=O)cc2n1 [I-119]	–	–	–	–	5 nM	70 nM
Cc1nc(N[C@H](C)c2cccc3c2CCC3(F)F)c2cn(C34CC(C3)C4)c(=O)cc2n1 [I-59]	–	3 nM	–	–	–	113 nM
Cc1nc(N[C@H](C)c2cccc(C(F)(F)F)c2C)c2cn(C3(C)CC3)c(=O)cc2n1 [I-37]	–	5 nM	–	–	–	61 nM
Cc1nc(N[C@H](C)c2cccc3c(F)coc23)c2cn(C3(C(F)F)CC3)c(=O)cc2n1 [I-103]	–	5 nM	–	–	–	70 nM
